Measured values: patent publication US9708325B2, “Sulfonimidoylpurinone compounds and derivatives for the treatment and prophylaxis of virus infection” (Hoffmann-La Roche Inc., priority 2015, dated 2017)
≈ marks a conversion by molar mass, not a printed value. Like-named read-outs stand apart in the source and are kept apart here.

What was measured:
human TLR7 = human TLR7 (Homo sapiens (Human), UniProt Q9NYK1); experiment: HEK-Blue-hTLR7 cells assay (SEAP reporter); assay type: cell-based; details: 20 hrs
Protocol: A stable HEK-Blue-hTLR7 cell line was purchased from InvivoGen (Cat.#: hkb-htlr7, San Diego, Calif., USA). These cells were designed for studying the stimulation of human TLR7 by monitoring the activation of NF-κB. […] Therefore the reporter expression was regulated by the NF-κB promoter upon stimulation of human TLR7 for 20 hrs. The cell culture supernatant SEAP reporter activity was determined using QUANTI-Blue™ kit (Cat.#: rep-qb1, Invivogen, San Diego, Ca, USA) at a wavelength of 640 nm, a detection medium that turns purple or blue in the presence of alkaline phosphatase.
HEK-Blue-hTLR7 cells were incubated at a density of 250,000˜450,000 cells/mL in a volume of 180 μL in a 96-well plate in Dulbecco's Modified Eagle's medium (DMEM) containing 4.5 g/L glucose, 50 U/mL penicillin, […], […], 2 mM L-glutamine, 10% (V/V) heat-inactivated fetal bovine serum for 24 hrs. Then the HEK-Blue-hTLR-7 cells were incubated with addition of 20 μL test compound in a serial dilution in the presence of final DMSO at 1% and perform incubation under 37° C. in a CO2 incubator for 20 hrs. Then 20 μL of the supernatant from each well was incubated with 180 μL Quanti-blue substrate solution at 37° C. for 2 hrs and the absorbance was read at 620˜655 nm using a spectrophotometer. The signalling pathway that TLR7 activation leads to downstream NF-κB activation has been widely accepted, and therefore similar reporter assay was also widely used for evaluating TLR7 agonist (Tsuneyasu Kaisho and Takashi Tanaka, Trends in Immunology, Volume 29, Issue 7, July 2008, […]; Hiroaki Hemmi et al, Nature Immunology 3, 196-200 (2002)).

LYSA solubility = assay type: physicochemical; details: 0.05 M phosphate buffer, pH 6.5, aqueous buffer, thermodynamic from solid
Protocol: LYSA solubility assay is used to determine the aqueous solubility of a compound. Samples were prepared in duplicate from 10 mM DMSO stock solution. […] After one night, the solutions were filtered using a microtiter filter plate. Then the filtrate and its 1/10 dilution were analyzed by HPLC-UV.

[1] = read-out: HEK-Blue-hTLR7 (EC50 (μM))

human TLR7, sequence (Q9NYK1 27-1049): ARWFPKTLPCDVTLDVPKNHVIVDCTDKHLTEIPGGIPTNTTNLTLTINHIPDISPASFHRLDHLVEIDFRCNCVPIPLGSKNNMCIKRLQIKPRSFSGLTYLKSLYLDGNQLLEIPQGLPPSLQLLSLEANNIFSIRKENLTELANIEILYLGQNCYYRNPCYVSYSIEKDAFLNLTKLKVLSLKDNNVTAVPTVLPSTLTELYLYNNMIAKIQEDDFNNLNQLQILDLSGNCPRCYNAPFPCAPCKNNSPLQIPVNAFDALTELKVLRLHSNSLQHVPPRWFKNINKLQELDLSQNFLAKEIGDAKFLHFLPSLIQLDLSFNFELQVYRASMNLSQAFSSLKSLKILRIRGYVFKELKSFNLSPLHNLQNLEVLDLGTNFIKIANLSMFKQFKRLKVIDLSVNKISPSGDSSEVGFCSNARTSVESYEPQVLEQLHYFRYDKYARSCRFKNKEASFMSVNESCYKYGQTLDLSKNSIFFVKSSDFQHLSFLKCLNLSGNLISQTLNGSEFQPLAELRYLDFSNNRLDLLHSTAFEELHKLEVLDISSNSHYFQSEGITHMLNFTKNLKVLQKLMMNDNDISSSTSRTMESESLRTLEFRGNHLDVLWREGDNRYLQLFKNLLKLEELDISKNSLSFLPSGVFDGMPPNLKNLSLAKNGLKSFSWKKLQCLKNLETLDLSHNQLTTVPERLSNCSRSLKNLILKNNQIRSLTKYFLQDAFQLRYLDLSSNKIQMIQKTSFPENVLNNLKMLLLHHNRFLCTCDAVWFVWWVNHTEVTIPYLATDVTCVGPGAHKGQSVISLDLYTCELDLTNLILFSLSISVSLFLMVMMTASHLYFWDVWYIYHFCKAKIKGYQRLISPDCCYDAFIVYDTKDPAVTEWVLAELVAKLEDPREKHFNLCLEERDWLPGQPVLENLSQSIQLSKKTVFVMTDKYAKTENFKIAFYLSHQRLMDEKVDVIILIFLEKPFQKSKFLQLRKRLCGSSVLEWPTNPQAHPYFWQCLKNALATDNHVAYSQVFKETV

Structure (SMILES)	EC50 (human TLR7; [1])	solubility thermodynamic (LYSA solubility)	EC50 (human TLR7; HEK-Blue-hTLR7 (EC50 (μM)))
COCCS(=N)(=O)c1nc(N)c2[nH]c(=O)n(Cc3ccccc3)c2n1 (single isomer, unassigned) [Example 3-B, 6-Amino-9-benzyl-2-(2-methoxyethylsulfonimidoyl)-7H-purin-8-one]			0.55 µM
CCCS(=N)(=O)c1nc(N)c2[nH]c(=O)n(Cc3ccc(Cl)cc3)c2n1 (single isomer, unassigned) [Example 9-A, 6-Amino-9-[(4-chlorophenyl)methyl]-2-(propylsulfonimidoyl)-7H-purin-8-one]			0.014 µM
CCCS(=N)(=O)c1nc(N)c2[nH]c(=O)n(Cc3ccc(Cl)cc3)c2n1 (single isomer, unassigned) [Example 9-B, 6-Amino-9-[(4-chlorophenyl)methyl]-2-(propylsulfonimidoyl)-7H-purin-8-one]			0.011 µM
CS(=N)(=O)c1nc(N)c2[nH]c(=O)n(Cc3cccnc3)c2n1 (single isomer, unassigned) [Example 16-A, 6-Amino-2-(methylsulfonimidoyl)-9-(3-pyridylmethyl)-7H-purin-8-one]			0.76 µM
CS(=N)(=O)c1nc(N)c2[nH]c(=O)n(Cc3cccnc3)c2n1 (single isomer, unassigned) [Example 16-B, 6-Amino-2-(methylsulfonimidoyl)-9-(3-pyridylmethyl)-7H-purin-8-one]			0.15 µM
N=S(=O)(CC(F)(F)F)c1nc(N)c2[nH]c(=O)n(Cc3ccccc3)c2n1 (centres unmarked) [Example 7, 6-Amino-9-benzyl-2-(2,2,2-trifluoroethylsulfonimidoyl)-7H-purin-8-one]	0.18 µM	18 µg/mL (≈ 46.6 µM)	
CCCS(=N)(=O)c1nc(N)c2[nH]c(=O)n(Cc3cccc(C#N)c3)c2n1 (centres unmarked) [Example 17, 3-[[6-Amino-8-oxo-2-(propylsulfonimidoyl)-7H-purin-9-yl]methyl]benzonitrile]			0.068 µM
CCCS(=N)(=O)c1nc(N)c2[nH]c(=O)n(Cc3cccc(C(N)=O)c3)c2n1 (centres unmarked) [Example 18, 3-[[6-amino-8-oxo-2-(propylsulfonimidoyl)-7H-purin-9-yl]methyl]benzamide]	0.047 µM	166 µg/mL (≈ 426 µM)	
CS(=N)(=O)c1nc(N)c2[nH]c(=O)n(Cc3ccccn3)c2n1 (centres unmarked) [Example 19, 6-Amino-2-(methylsulfonimidoyl)-9-(2-pyridylmethyl)-7H-purin-8-one]	0.67 µM	> 428 µg/mL	
CCCS(=N)(=O)c1nc(N)c2[nH]c(=O)n(Cc3ccc(Cl)c(Cl)c3)c2n1 (centres unmarked) [Example 26, 6-Amino-9-[(3,4-dichlorophenyl)methyl]-2-(propylsulfonimidoyl)-7H-purin-8-one]	0.021 µM		
CCCS(=N)(=O)c1nc(N)c2[nH]c(=O)n(Cc3ccc(C)cc3)c2n1 (centres unmarked) [Example 29, 6-Amino-2-(propylsulfonimidoyl)-9-(p-tolylmethyl)-7H-purin-8-one]	0.027 µM		
CCS(=N)(=O)c1nc(N)c2[nH]c(=O)n(Cc3ccc(C)cc3)c2n1 (centres unmarked) [Example 71, 6-Amino-2-(ethylsulfonimidoyl)-9-(p-tolylmethyl)-7H-purin-8-one]	0.098 µM	12 µg/mL (≈ 34.6 µM)	

Now from value to compound, other results behind:

EC50 (human TLR7; [1])	solubility thermodynamic (LYSA solubility)	Structure (SMILES)	EC50 (human TLR7; HEK-Blue-hTLR7 (EC50 (μM)))
0.43 µM	89 µg/mL (≈ 236 µM)	COCCCS(=N)(=O)c1nc(N)c2[nH]c(=O)n(Cc3ccccc3)c2n1 (centres unmarked) [Example 6, 6-Amino-9-benzyl-2-(3-methoxypropylsulfonimidoyl)-7H-purin-8-one]	
0.074 µM		COc1ccc(Cn2c(=O)[nH]c3c(N)nc(S(C)(=N)=O)nc32)cc1 (centres unmarked) [Example 10, 6-Amino-9-[(4-methoxyphenyl)methyl]-2-(methylsulfonimidoyl)-7H-purin-8-one]	
0.066 µM	18 µg/mL (≈ 43.8 µM)	COc1ccc(Cn2c(=O)[nH]c3c(N)nc(S(=N)(=O)CCCCl)nc32)cc1 (centres unmarked) [Example 11, 6-Amino-2-(3-chloropropylsulfonimidoyl)-9-[(4-methoxyphenyl)methyl]-7H-purin-8-one]	
0.19 µM		CCCS(=N)(=O)c1nc(N)c2[nH]c(=O)n(Cc3ccccc3Cl)c2n1 (centres unmarked) [Example 15, 6-Amino-9-[(2-chlorophenyl)methyl]-2-(propylsulfonimidoyl)-7H-purin-8-one]	
	121 µg/mL (≈ 387 µM)	CCCS(=N)(=O)c1nc(N)c2[nH]c(=O)n(CC(C)C)c2n1 (centres unmarked) [Example 21, 6-Amino-9-isobutyl-2-(propylsulfonimidoyl)-7H-purin-8-one]	
0.042 µM		CCCS(=N)(=O)c1nc(N)c2[nH]c(=O)n(Cc3cccc(Cl)c3)c2n1 (centres unmarked) [Example 22, 6-Amino-9-[(3-chlorophenyl)methyl]-2-(propylsulfonimidoyl)-7H-purin-8-one]	
0.016 µM		CCCS(=N)(=O)c1nc(N)c2[nH]c(=O)n(Cc3ccc(C(F)(F)F)cc3)c2n1 (centres unmarked) [Example 23, 6-Amino-2-(propylsulfonimidoyl)-9-[[4-(trifluoromethyl)phenyl]methyl]-7H-purin-8-one]	
0.0096 µM		CCCS(=N)(=O)c1nc(N)c2[nH]c(=O)n(Cc3ccc(Br)cc3)c2n1 (centres unmarked) [Example 25, 6-Amino-9-[(4-bromophenyl)methyl]-2-(propylsulfonimidoyl)-7H-purin-8-one]	
0.021 µM		CCCS(=N)(=O)c1nc(N)c2[nH]c(=O)n(Cc3ccc(Cl)c(C)c3)c2n1 (centres unmarked) [Example 28, 6-Amino-9-[(4-chloro-3-methyl-phenyl)methyl]-2-(propylsulfonimidoyl)-7H-purin-8-one]	
0.018 µM		CCCS(=N)(=O)c1nc(N)c2[nH]c(=O)n(Cc3ccc(Cl)c(F)c3)c2n1 (centres unmarked) [Example 30, 6-Amino-9-[(4-chloro-3-fluorophenyl)methyl]-2-(propylsulfonimidoyl)-7H-purin-8-one]	
0.022 µM		CCCS(=N)(=O)c1nc(N)c2[nH]c(=O)n(Cc3ccc(C)c(Cl)c3)c2n1 (centres unmarked) [Example 36, 6-Amino-9-[(3-chloro-4-methyl-phenyl)methyl]-2-(propylsulfonimidoyl)-7H-purin-8-one]	
0.075 µM		CCCS(=N)(=O)c1nc(N)c2[nH]c(=O)n(Cc3ccc(C(=O)OC)cc3)c2n1 (centres unmarked) [Example 38, Methyl 4-[[6-amino-8-oxo-2-(propylsulfonimidoyl)-7H-purin-9-yl]methyl]benzoate]	
0.084 µM		CCCS(=N)(=O)c1nc(N)c2[nH]c(=O)n(Cc3ccc(C(=O)N4CCCCC4)cc3)c2n1 (centres unmarked) [Example 41, 6-Amino-9-[[4-(piperidine-1-carbonyl)phenyl]methyl]-2-(propylsulfonimidoyl)-7H-purin-8-one]	
0.09 µM		CCCS(=N)(=O)c1nc(N)c2[nH]c(=O)n(Cc3ccc(C(=O)N4CCCC4)cc3)c2n1 (centres unmarked) [Example 42, 6-Amino-2-(propylsulfonimidoyl)-9-[[4-(pyrrolidine-1-carbonyl)phenyl]methyl]-7H-purin-8-one]	
